Assay results published in patent publication US20220168427A1 (Ranok Therapeutics (Hangzhou) Co. Ltd., priority 2019, published 2022).
pIC50: −log10 of the molar value.

What was measured:
[1] = target: HSP90α (Homo sapiens, UniProt P07900); assay: HSP90α Binding Fluorescent Polarization (FP) Assay; details: competition with FITC-geldanamycin; read-out: HSP90 Binding Potency
In short: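 Competitive FP assay in which compound displaces FITC-geldanamycin from recombinant HSP90α (28 μg/ml before addition) in BSA-containing buffer. Compounds in 3-fold series from 40 μM to 2.0 nM (dilution-plate concentrations), tested in duplicate. Readings after 30, 60 and 120 min at 25 °C; background-subtracted mP fitted to four-parameter log[inhibitor]-response curve.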

[2] = test system: MV4-11 cells; assay: MV4-11 Cell Cytotoxicity Assay; type: cell-based, human; details: human, MV4-11 cells, CCK-8
Excerpt: % Inhibition=100−(D−B)/(S−B)*100%.
S: The absorbance of the maximum (cells with DMSO)
B: The absorbance of the minimum (medium with DMSO)

[3] = target: T1, BRD4 (BD1+BD2) (Homo sapiens, UniProt O60885); details: read-out: BRD4 Binding Potency
T1 construct: 1.8 μg/ml recombinant BRD4 (BD1+BD2 domains) protein

In the case of Cc1sc2c(c1C)C(c1ccc(Cl)cc1)=N[C@@H](CC(=O)NCC(=O)NCc1ccc(-n3c(O)nnc3-c3cc(C(C)C)c(O)cc3O)cc1)c1nnc(C)n1-2 [Compound 57, 2-((6S)-4-(4-chlorophenyl)-2,3,9-trimethyl-6H-thieno[3,2-f][1,2,4]triazolo[4,3-a][1,4]diazepin-6-yl)-N-(2-((4-(3-(2,4-dihydroxy-5-isopropylphenyl)-5-hydroxy-4H-1,2,4-triazol-4-yl)benzyl)amino)-2-oxoethyl)acetamide], the pIC50 [1] was 6.00 to 7.00, the IC50 at 72 h [2] was 100 to 1000 nM and the pIC50 [3] was 6.00 to 7.00.

Compound Cc1sc2c(c1C)C(c1ccc(Cl)cc1)=N[C@@H](CC(=O)NCC1CN(C(=O)C3CCN(Cc4ccc(-n5c(O)nnc5-c5cc(C(C)C)c(O)cc5O)cc4)CC3)C1)c1nnc(C)n1-2 [Compound 59, 2-((6S)-4-(4-chlorophenyl)-2,3,9-trimethyl-6H-thieno[3,2-f][1,2,4]triazolo[4,3-a][1,4]diazepin-6-yl)-N-((1-(1-(4-(3-(2,4-dihydroxy-5-isopropylphenyl)-5-hydroxy-4H-1,2,4-triazol-4-yl)benzyl)piperidine-4-carbonyl)azetidin-3-yl)methyl)acetamide, trifluoroacetic acid] has a pIC50 [1] of 6.00 to 7.00, an IC50 at 72 h [2] of less than 100 nM and a pIC50 [3] of 6.00 to 7.00.

Compound Cc1sc2c(c1C)C(c1ccc(Cl)cc1)=N[C@@H](CC(=O)NCC(=O)NCC1CN(C(=O)C3CCN(Cc4ccc(-n5c(O)nnc5-c5cc(C(C)C)c(O)cc5O)cc4)CC3)C1)c1nnc(C)n1-2 [Compound 60, 2-((6S)-4-(4-chlorophenyl)-2,3,9-trimethyl-6H-thieno[3,2-f][1,2,4]triazolo[4,3-a][1,4]diazepin-6-yl)-N-(2-(((1-(1-(4-(3-(2,4-dihydroxy-5-isopropylphenyl)-5-hydroxy-4H-1,2,4-triazol-4-yl)benzyl)piperidine-4-carbonyl)azetidin-3-yl)methyl)amino)-2-oxoethyl)acetamide, trifluoroacetic acid] has a pIC50 [1] of 6.00 to 7.00, an IC50 at 72 h [2] of less than 100 nM and a pIC50 [3] of 6.00 to 7.00.

Cc1sc2c(c1C)C(c1ccc(Cl)cc1)=N[C@@H](CCNCCOc1ccc(-n3c(O)nnc3-c3cc(C(C)C)c(O)cc3O)cc1)c1nnc(C)n1-2 [Compound 62, (S)-4-(4-(4-(2-((2-(4-(4-chlorophenyl)-2,3,9-trimethyl-6H-thieno[3,2-f][1,2,4]triazolo[4,3-a][1,4]diazepin-6-yl)ethyl)amino)ethoxy)phenyl)-5-hydroxy-4H-1,2,4-triazol-3-yl)-6-isopropylbenzene-1,3-diol, trifluoroacetic acid] was tested, and the pIC50 [1] was 6.00 to 7.00, the IC50 at 72 h [2] was 100 to 1000 nM and the pIC50 [3] was less than 6.00.

Cc1sc2c(c1C)C(c1ccc(Cl)cc1)=N[C@@H](CCNCCOCCOc1ccc(-n3c(O)nnc3-c3cc(C(C)C)c(O)cc3O)cc1)c1nnc(C)n1-2 [Compound 63, (S)-4-(4-(4-(2-(2-((2-(4-(4-chlorophenyl)-2,3,9-trimethyl-6H-thieno[3,2-f][1,2,4]triazolo[4,3-a][1,4]diazepin-6-yl)ethyl)amino)ethoxy)ethoxy)phenyl)-5-hydroxy-4H-1,2,4-triazol-3-yl)-6-isopropylbenzene-1,3-diol, trifluoroacetic acid] showed a pIC50 [1] of 6.00 to 7.00, an IC50 at 72 h [2] of 100 to 1000 nM and a pIC50 [3] of 6.00 to 7.00.

Work on Cc1sc2c(c1C)C(c1ccc(Cl)cc1)=N[C@@H](CCNCC1CCN(C(=O)C3CCN(Cc4ccc(-n5c(O)nnc5-c5cc(C(C)C)c(O)cc5O)cc4)CC3)CC1)c1nnc(C)n1-2 [Compound 64, (4-(((2-((6S)-4-(4-chlorophenyl)-2,3,9-trimethyl-6H-thieno[3,2-f][1,2,4]triazolo[4,3-a][1,4]diazepin-6-yl)ethyl)amino)methyl)piperidin-1-yl)(1-(4-(3-(2,4-dihydroxy-5-isopropylphenyl)-5-hydroxy-4H-1,2,4-triazol-4-yl)benzyl)piperidin-4-yl)methanone, trifluoroacetic acid] yielded a pIC50 [1] of 6.00 to 7.00, an IC50 at 72 h [2] of 100 to 1000 nM and a pIC50 [3] of 6.00 to 7.00.

With Cc1sc2c(c1C)C(c1ccc(Cl)cc1)=N[C@@H](CCN(C)CCOc1ccc(-n3c(O)nnc3-c3cc(C(C)C)c(O)cc3O)cc1)c1nnc(C)n1-2 [Compound 65, (S)-4-(4-(4-(2-((2-(4-(4-chlorophenyl)-2,3,9-trimethyl-6H-thieno[3,2-f][1,2,4]triazolo[4,3-a][1,4]diazepin-6-yl)ethyl)(methyl)amino)ethoxy)phenyl)-5-hydroxy-4H-1,2,4-triazol-3-yl)-6-isopropylbenzene-1,3-diol] the pIC50 [1] was 6.00 to 7.00, the IC50 at 72 h [2] was 100 to 1000 nM and the pIC50 [3] was less than 6.00.

With Cc1sc2c(c1C)C(c1ccc(Cl)cc1)=N[C@@H](CCNCC1CCN(C(=O)C3CCN(Cc4ccc(-n5c(O)nnc5-c5cc(C(C)C)c(O)cc5O)cc4)CC3)C1)c1nnc(C)n1-2 (stereo partly drawn) [Compound 66, (3-(((2-((6S)-4-(4-chlorophenyl)-2,3,9-trimethyl-6H-thieno[3,2-f][1,2,4]triazolo[4,3-a][1,4]diazepin-6-yl)ethyl)amino)methyl)pyrrolidin-1-yl)(1-(4-(3-(2,4-dihydroxy-5-isopropylphenyl)-5-hydroxy-4H-1,2,4-triazol-4-yl)benzyl)piperidin-4-yl)methanone, trifluoroacetic acid] the pIC50 [1] was 6.00 to 7.00, the IC50 at 72 h [2] was 100 to 1000 nM and the pIC50 [3] was less than 6.00.

In the case of CCc1cc(-c2nnc(O)n2-c2ccc(CN3CCC(C(=O)N4CCC(CNCC[C@@H]5N=C(c6ccc(Cl)cc6)c6c(sc(C)c6C)-n6c(C)nnc65)C4)CC3)cc2)c(O)cc1O (stereo partly drawn) [Compound 67, (3-(((2-((6S)-4-(4-chlorophenyl)-2,3,9-trimethyl-6H-thieno[3,2-f][1,2,4]triazolo[4,3-a][1,4]diazepin-6-yl)ethyl)amino)methyl)pyrrolidin-1-yl)(1-(4-(3-(5-ethyl-2,4-dihydroxyphenyl)-5-hydroxy-4H-1,2,4-triazol-4-yl)benzyl)piperidin-4-yl)methanone, trifluoroacetic acid], the pIC50 [1] was 6.00 to 7.00, the IC50 at 72 h [2] was 100 to 1000 nM and the pIC50 [3] was 6.00 to 7.00.

In the case of CCc1cc(-c2nnc(O)n2-c2ccc(CN3CCC(C(=O)N4CCC(CNCC[C@@H]5N=C(c6ccc(Cl)cc6)c6c(sc(C)c6C)-n6c(C)nnc65)CC4)CC3)cc2)c(O)cc1O [Compound 68, (4-(((2-((6S)-4-(4-chlorophenyl)-2,3,9-trimethyl-6H-thieno[3,2-f][1,2,4]triazolo[4,3-a][1,4]diazepin-6-yl)ethyl)amino)methyl)piperidin-1-yl)(1-(4-(3-(5-ethyl-2,4-dihydroxyphenyl)-5-hydroxy-4H-1,2,4-triazol-4-yl)benzyl)piperidin-4-yl)methanone, trifluoroacetic acid], the pIC50 [1] was 6.00 to 7.00, the IC50 at 72 h [2] was 100 to 1000 nM and the pIC50 [3] was 6.00 to 7.00.

Cc1sc2c(c1C)C(c1ccc(Cl)cc1)=N[C@@H](CCN(C)CCOCCOc1ccc(-n3c(O)nnc3-c3cc(C(C)C)c(O)cc3O)cc1)c1nnc(C)n1-2 [Compound 71, (S)-4-(4-(4-(2-(2-((2-(4-(4-chlorophenyl)-2,3,9-trimethyl-6H-thieno[3,2-f][1,2,4]triazolo[4,3-a][1,4]diazepin-6-yl)ethyl)(methyl)amino)ethoxy)ethoxy)phenyl)-5-hydroxy-4H-1,2,4-triazol-3-yl)-6-isopropylbenzene-1,3-diol, trifluoroacetic acid] was tested, and the pIC50 [1] was 6.00 to 7.00, the IC50 at 72 h [2] was 100 to 1000 nM and the pIC50 [3] was less than 6.00.

Cc1sc2c(c1C)C(c1ccc(Cl)cc1)=N[C@@H](CC(=O)Nc1ccc(NC(=O)C3CCN(Cc4ccc(-n5c(O)nnc5-c5cc(C(C)C)c(O)cc5O)cc4)CC3)cc1)c1nnc(C)n1-2 [Compound 72, N-(4-(2-((6S)-4-(4-chlorophenyl)-2,3,9-trimethyl-6H-thieno[3,2-f][1,2,4]triazolo[4,3-a][1,4]diazepin-6-yl)acetamido)phenyl)-1-(4-(3-(2,4-dihydroxy-5-isopropylphenyl)-5-hydroxy-4H-1,2,4-triazol-4-yl)benzyl)piperidine-4-carboxamide, trifluoroacetic acid] was tested, and the pIC50 [1] was less than 6.00, the IC50 at 72 h [2] was less than 100 nM and the pIC50 [3] was less than 6.00.

CCc1cc(-c2nnc(O)n2-c2ccc(CN3CCC(C(=O)N4CCC(CNC(=O)C[C@@H]5N=C(c6ccc(Cl)cc6)c6c(sc(C)c6C)-n6c(C)nnc65)C4)CC3)cc2)c(O)cc1O (stereo partly drawn) [Compound 77, 2-((6S)-4-(4-chlorophenyl)-2,3,9-trimethyl-6H-thieno[3,2-f][1,2,4]triazolo[4,3-a][1,4]diazepin-6-yl)-N-((1-(1-(4-(3-(5-ethyl-2,4-dihydroxyphenyl)-5-hydroxy-4H-1,2,4-triazol-4-yl)benzyl)piperidine-4-carbonyl)pyrrolidin-3-yl)methyl)acetamide, trifluoroacetic acid] was tested, and the pIC50 [1] was 6.00 to 7.00, the IC50 at 72 h [2] was 100 to 1000 nM and the pIC50 [3] was greater than 7.00.

With Cc1sc2c(c1C)C(c1ccc(Cl)cc1)=N[C@@H](CC(=O)N1CCN(c3ccc(-n4c(O)nnc4-c4cc(C(C)C)c(O)cc4O)cc3)CC1)c1nnc(C)n1-2 [Compound 79, (S)-2-(4-(4-chlorophenyl)-2,3,9-trimethyl-6H-thieno[3,2-f][1,2,4]triazolo[4,3-a][1,4]diazepin-6-yl)-1-(4-(4-(3-(2,4-dihydroxy-5-isopropylphenyl)-5-hydroxy-4H-1,2,4-triazol-4-yl)phenyl)piperazin-1-yl)ethan-1-one] the pIC50 [1] was 6.00 to 7.00, the IC50 at 72 h [2] was less than 100 nM and the pIC50 [3] was 6.00 to 7.00.
